Counter-ions that a name gives are not always drawn. No end group written: not given here.

The term IC50 denotes the concentration needed to halve the response being measured.

In one data set the target is T1, hB2 receptor (Homo sapiens, UniProt P30411).
T1 construct: host or cells: CHO-K1
T1 sequence (P30411 1-391): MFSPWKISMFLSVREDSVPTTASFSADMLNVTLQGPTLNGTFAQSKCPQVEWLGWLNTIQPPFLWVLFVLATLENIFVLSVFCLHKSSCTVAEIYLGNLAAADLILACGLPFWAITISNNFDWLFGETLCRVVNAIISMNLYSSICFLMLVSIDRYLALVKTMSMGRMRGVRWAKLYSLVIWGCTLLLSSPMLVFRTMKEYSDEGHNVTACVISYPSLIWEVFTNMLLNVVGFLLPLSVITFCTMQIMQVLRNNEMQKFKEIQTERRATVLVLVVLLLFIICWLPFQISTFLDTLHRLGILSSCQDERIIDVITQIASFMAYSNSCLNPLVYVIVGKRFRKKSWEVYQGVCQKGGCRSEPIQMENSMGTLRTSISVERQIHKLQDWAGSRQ
Put plainly: In vitro Assay of hB2 Receptor Function using Calcium Flux. In kind it is cell-based. The following applies: recombinant CHO cells, antagonist IC50 against agonist at EC80. Here is the method:
In vitro Assay of hB2 Receptor Function using Calcium Flux The intracellular calcium flux induced by hB2 receptor activation was analyzed using an hB2 recombinant cell line (CHO-K1) purchased from PerkinElmer (Catalog Number: RBHB2C000EA) on a fluorometric imaging plate reader (FLIPR). […] Culture medium was changed every other day. 24 h prior to the FLIPR assay, the hB2/CHO cells were washed once with PBS (Invitrogen) and 10 mL of Versene (1:5000, Invitrogen, Cat# 15040-066) was added to each flask. After 5 min incubation at 37° C., Versene was removed and cells were detached from the flask and resuspended in culture medium. Cells were counted and 25,000 cells/well were plated in 96-well black-sided clear bottom assay plates (Costar #3904). Cells were incubated in a 37° C. CO2 incubator overnight. The media was aspirated from the cells and replaced with 65 μL of dye-loading buffer. The loading buffer was prepared by diluting a stock solution of 0.5 mM Fluo-4 AM (Molecular Probes, dissolved in DMSO containing 10% [w/v] pluronic acid) to a concentration of 1 μM in Clear Dulbecco's Modified Eagle Medium (DMEM) containing 0.1% BSA, 20 mM HEPES, and 2.5 mM probenecid. The cells were dye-loaded for 1 h at RT. The excess dye was removed by washing the cells 2× with assay buffer. The assay buffer consists of Hank's Balanced Salt Solution (HBSS) containing 20 mM HEPES, 0.1% BSA, and 2.5 mM probenecid. After the wash cycles, a volume of 100 μL was left in each well, and the plate was ready to be assayed in the FLIPR System. […] The cell plate and the compound plates were loaded onto the FLIPR and during the assay, fluorescence readings are taken simultaneously from all 96 wells of the cell plate. Ten 1-second readings were taken to establish a stable baseline for each well, then 25 μL from the B1 antagonist plate was rapidly (50 μL/sec.) added. The fluorescence signal was measured in 1-second (1 min) followed by 6-second (2 min) intervals for a total of 3 min to determine if there is any agonist activity with the compounds.
With “2-((2R)-1-((2,3-dichlorophenyl)sulfonyl)-3-oxo-1,2,3,4-tetrahydro-2-pyrazinyl)-N-((4S)-3,3-dimethyl-4-piperidinyl)acetamide; and 2-((2R)-1-((2,3-dichlorophenyl)sulfonyl)-3-oxo-1,2,3,4-tetrahydro-2-pyrazinyl)-N-((4R)-3,3-dimethyl-4-piperidinyl)acetamide [T-1-47]”, the IC50 came out at 0.8 nM.

Turning to `COc1ccc(CC2CCCN2C(=O)C[C@@H]2C(=O)NC=CN2S(=O)(=O)c2ccc(C)cc2)cc1` (stereo partly drawn) [T-3-47, (3R)-3-(2-(2-RS-((4-(methyloxy)phenyl)methyl)-1-pyrrolidinyl)-2-oxoethyl)-4-((4-methylphenyl)sulfonyl)-3,4-dihydro-2(1H)-pyrazinone], the IC50 was 390 nM.

As for `Cc1ccc(S(=O)(=O)N2C=CNC(=O)[C@H]2CC(=O)NC2CCN(c3ncccn3)CC2)cc1` [T-1-7, 2-((2R)-1-((4-methylphenyl)sulfonyl)-3-oxo-1,2,3,4-tetrahydro-2-pyrazinyl)-N-(1-(2-pyrimidinyl)-4-piperidinyl)acetamide], the IC50 came out at 700 nM.

Turning to `Cc1ccc(S(=O)(=O)N2C=CNC(=O)[C@H]2CC(=O)NC2CCC(NCC(C)(C)C)CC2(C)C)cc1` (mixture of isomers) [T-1-44], the IC50 stood at 2300 nM.

For the molecule `Cc1ccc(S(=O)(=O)N2C=CNC(=O)[C@H]2CC(=O)N2CCCC2c2cc3ccccc3[nH]2)cc1` (stereo partly drawn) [T-3-50, (3R)-3-(2-(2-RS-(1H-indol-2-yl)-1-pyrrolidinyl)-2-oxoethyl)-4-((4-methylphenyl)sulfonyl)-3,4-dihydro-2(1H)-pyrazinone], the IC50 is over 4000 nM.

As to `Cc1cc(S(=O)(=O)N2C=CNC(=O)[C@H]2CC(=O)N2CCCC(N(C)C3CC3)CC2)c(C)cc1Cl` (mixture of isomers) [T-3-28, (3R)-4-((4-chloro-2,5-dimethylphenyl)sulfonyl)-3-(2-((4R/S)-4-(cyclopropyl(methyl)amino)-1-azepanyl)-2-oxoethyl)-3,4-dihydro-2(1H)-pyrazinone trifluoroacetic acid salt], the IC50 was 32 nM.

With `CC(=O)N1CCC(NC(=O)C[C@@H]2C(=O)NC=CN2S(=O)(=O)c2ccc(C)cc2)C(C)(C)C1` (stereo partly drawn) [T-1-18, N-(1-acetyl-3,3-dimethyl-4-piperidinyl)-2-((2R)-1-((4-methylphenyl)sulfonyl)-3-oxo-1,2,3,4-tetrahydro-2-pyrazinyl)acetamide], the half-maximal inhibitory concentration (IC50) came out at 15 nM.

With `Cc1ccc(S(=O)(=O)N2C=CNC(=O)[C@H]2CC(=O)N2CCCC2c2ccccc2)cc1` (stereo partly drawn) [T-3-43, (3R)-4-((4-methylphenyl)sulfonyl)-3-(2-oxo-2-(2RS-phenyl-1-pyrrolidinyl)ethyl)-3,4-dihydro-2(1H)-pyrazinone], the IC50 came to 2600 nM.

For the molecule `Cc1ccc(S(=O)(=O)N2C=CNC(=O)[C@H]2CC(=O)NC2CC(C)(C)N(C)C(C)(C)C2)cc1` [T-1-77, 2-((2R)-1-((4-methylphenyl)sulfonyl)-3-oxo-1,2,3,4-tetrahydro-2-pyrazinyl)-N-(1,2,2,6,6-pentamethyl-4-piperidinyl)acetamide], the IC50 turned out to be 20 nM.

As to `Cc1ccc(S(=O)(=O)N2C=CNC(=O)[C@H]2CC(=O)N2C[C@@H](N)[C@H](c3ccccc3)C2)cc1` [T-3-10, (3R)-3-(2-((3S)-3-(amino)-4(R)-4-phenyl-1-pyrrolidinyl)-2-oxoethyl)-4-((4-methylphenyl)sulfonyl)-3,4-dihydro-2(1H)-pyrazinone], the concentration for half-maximal inhibition (IC50) stood at 270 nM.

Regarding `Cc1ccc(S(=O)(=O)N2C=CNC(=O)[C@H]2CC(=O)NC2CCC3(CC2(C)C)OCCO3)cc1` (mixture of isomers) [T-1-111, N-((8RS)-7,7-dimethyl-1,4-dioxaspiro[4.5]dec-8-yl)-2-((2R)-1-((4-methylphenyl)-sulfonyl)-3-oxo-1,2,3,4-tetrahydro-2-pyrazinyl)acetamide], the IC50 was determined as 1.4 nM.

For the molecule `Cc1ccc(S(=O)(=O)N2C=CNC(=O)[C@H]2CC(=O)NC2CCC(N3CCCC3)CC2(C)C)cc1` (mixture of isomers) [T-1-50], the IC50 turned out to be 1.3 nM.

With `COc1ccc(C2CN(C(=O)C[C@@H]3C(=O)NC=CN3S(=O)(=O)c3ccc(C)cc3)CCS2)cc1` (stereo partly drawn) [T-3-2, (3R)-3-(2-(2-(4-(methyloxy)phenyl)-4-thiomorpholinyl)-2-oxoethyl)-4-((4-methyl-phenyl)sulfonyl)-3,4-dihydro-2(1H)-pyrazinone], the IC50 came to 130 nM.

Turning to `Cc1cc(S(=O)(=O)N2C=CNC(=O)[C@H]2CC(=O)N2CCC(CO)CC2)c(C)cc1Cl` [T-3-15, (3R)-4-((4-chloro-2,5-dimethylphenyl)sulfonyl)-3-(2-(4-(hydroxymethyl)-1-piperidinyl)-2-oxoethyl)-3,4-dihydro-2(1H)-pyrazinone], the IC50 was 940 nM.

For `Cc1ccc(S(=O)(=O)N2C=CNC(=O)[C@H]2CC(=O)N[C@H]2CC[C@@H](N)CC2)cc1` [T-1-31, N-(cis-4-aminocyclohexyl)-2-((2R)-1-((4-methylphenyl)sulfonyl)-3-oxo-1,2,3,4-tetrahydro-2-pyrazinyl)acetamide], the IC50 is 47 nM.

As to `Cc1ccc(S(=O)(=O)N2C=CNC(=O)[C@H]2CC(=O)N2CCCC2c2ccc(Cl)cc2)cc1` (stereo partly drawn) [T-3-3, (3R)-3-(2-(2-(4-chlorophenyl)-1-pyrrolidinyl)-2-oxoethyl)-4-((4-methylphenyl)-sulfonyl)-3,4-dihydro-2(1H)-pyrazinone], the IC50 came out at 1000 nM.

Consider `Cc1ccc(S(=O)(=O)N2C=CNC(=O)[C@H]2CC(=O)N[C@H]2CC[C@@H](NC(C)C)CC2)cc1` [T-1-35, N-(cis-4-((1-methylethyl)amino)cyclohexyl)-2-((2R)-1-((4-methylphenyl)sulfonyl)-3-oxo-1,2,3,4-tetrahydro-2-pyrazinyl)acetamide], for which the IC50 was determined as 420 nM.

In the case of `CO[C@H]1CC[C@H](NC(=O)C[C@@H]2C(=O)NC=CN2S(=O)(=O)c2ccc(C)cc2)CC1` [T-1-30, N-(trans-4-(methyloxy)cyclohexyl)-2-((2R)-1-((4-methylphenyl)sulfonyl)-3-oxo-1,2,3,4-tetrahydro-2-pyrazinyl)acetamide], the IC50 worked out at 190 nM.

As for `Cc1ccc(S(=O)(=O)N2C=CNC(=O)[C@H]2CC(=O)NC2CCN(CCc3ccccc3)CC2)cc1` [T-1-58, N-(1-(2-phenethyl)-4-piperidinyl)-2-((2R)-1-((4-methylphenyl)sulfonyl)-3-oxo-1,2,3,4-tetrahydro-2-pyrazinyl)acetamide], the half-inhibitory concentration (IC50) was 20 nM.

“1,1-dimethylethyl (3R)-3-((((2R)-1-((4-methylphenyl)sulfonyl)-3-oxo-1,2,3,4-tetrahydro-2-pyrazinyl)acetyl)amino)-1-piperidinecarboxylate; and 1,1-dimethylethyl (3S)-3-((((2R)-1-((4-methylphenyl)sulfonyl)-3-oxo-1,2,3,4-tetrahydro-2-pyrazinyl)acetyl)amino)-1-piperidinecarboxylate [T-1-8]”: the IC50 was found to be 170 nM.

For the molecule `Cc1ccc(S(=O)(=O)N2C=CNC(=O)[C@H]2CC(=O)NC2CCN(c3ccccc3)CC2)cc1` [T-1-3, 2-((2R)-1-((4-methylphenyl)sulfonyl)-3-oxo-1,2,3,4-tetrahydro-2-pyrazinyl)-N-(1-phenyl-4-piperidinyl)acetamide], the IC50 came to 21 nM.

With `Cc1ccc(S(=O)(=O)N2C=CNC(=O)[C@H]2CC(=O)N2CCC(NC(=O)c3ccccc3)CC2)cc1` [T-3-40, N-(1-(2-((2R)-1-((4-methylphenyl)sulfonyl)-3-oxo-1,2,3,4-tetrahydro-2-pyrazinyl)acetyl)-4-piperidinyl)benzamide], the IC50 is over 4000 nM.

With `Cc1ccc(S(=O)(=O)N2C=CNC(=O)[C@H]2CC(=O)NC2CCN(Cc3ccncc3)CC2(C)C)cc1` (mixture of isomers) [T-1-25, N-((4R)-3,3-dimethyl-1-(4-pyridinylmethyl)-4-piperidinyl)-2-((2R)-1-((4-methylphenyl)sulfonyl)-3-oxo-1,2,3,4-tetrahydro-2-pyrazinyl)acetamide; and N-((4S)-3,3-dimethyl-1-(4-pyridinylmethyl)-4-piperidinyl)-2-((2R)-1-((4-methyl-phenyl)sulfonyl)-3-oxo-1,2,3,4-tetrahydro-2-pyrazinyl)acetamide], the IC50 was found to be 1.21 nM.

Test system in a further data set: not given
Assay: not given
The following applies: cited from earlier work.
Turning to RPPGFSPFR [BK, Bradykinin], the “half-life of BK in plasma” value was “approximately 17 seconds”.
